Test results as given in patent US7923579B2, “Tricyclic hydroxamate and benzamide derivatives, compositions and methods” (Exonhit Therapeutics S.A., priority 2003, dated 2011).

How the values were obtained:
[1] = system: HDAC activity of Hela (human cervical cancer cell line) cells nuclear extract; assay: HDAC Fluorescent Activity Assay (Biomol Fluor de Lys substrate) with Hela nuclear extract; format: biochemical; conditions: read-out: IC50 (dose of compound leading to 50% of HDAC activity), Hela nuclear extract 5 μg, room temperature 0.5 h
Source text: Therefore, a fast, non isotopic method has been chosen that relies on a fluorescent HDAC substrate. This assay is a two step enzymatic reaction. The substrate used is a peptidic substrate with a ε-acetylated lysyl moiety followed by a 4-methylcoumarin-7-amide (AMC) moiety at their carboxy terminus. In the first reaction catalysed by HDACs, acetate is released from ε-acetylated lysine residue. In the second reaction, the deacetylated peptides are recognized as substrate by trypsin, which cleaves the deacetylated peptide after the lysine residue. This cleavage releases the AMC and the fluorescence is monitored by a fluorometer.
In order to evaluate the effect of one compound on HDAC activity, the HDAC Fluorescent Activity Assay/Drug Discovery Kit® developed by Biomol and based on the two step enzymatic reaction described above was used with modifications. The substrate of the Biomol assay, called Fluor de Lys™, comprises an acetylated lysine side chain with an AMC moiety.
Then, 5 μg of Hela (human cervical cancer cell line) cells nuclear extract is added in each well. The enzymatic reaction is initiated by the addition of the diluted Fluor de Lys™ substrate and the microplate is incubated at room temperature (e.g. 25° C.) for 0.5 h. In order to stop the reaction and to produce the fluorophore release, 50 μl of the Fluor de Lys™ Developer solution is added in each well and the microplate is incubated at room temperature (e.g. 25° C.) for 0.25 h. Finally, the fluorescence is measured by a fluorimeter (Fluoroskan Ascent FL, Thermolabsystem) at excitation wavelength of 360 nm and emission wavelength of 460 nm.

HDAC = conditions: read-out: HDAC activity is inhibited (reported concentration); depending of the HDAC activity assay used; cited from earlier work

CC1(C)CCC(C)(C)c2cc(C(=O)Nc3ccc(C(F)(F)C(=O)NO)cc3)ccc21 [EHT 4996, N-(4-((hydroxycarbamoyl)difluoromethyl)phenyl)-5,6,7,8-tetrahydro-5,5,8,8-tetramethylnaphthalene-2-carboxamide]
melting point: 224.2 °C

CC1(C)CCC(C)(C)c2cc(NC(=O)c3ccc(C(=O)NO)cc3)ccc21 [EHT 7706, N-(1,2,3,4-Tetrahydro-1,1,4,4-tetramethylnaphthalen-6-yl)-N′-hydroxyterephthalamide]
IC50 [1]: 1.18 µM | melting point: 211 °C

CC1(C)CCC(C)(C)c2cc(C(F)(F)C(=O)NCc3ccc(C(=O)NO)cc3)ccc21 [EHT 7800, 4-((2,2-Difluoro-2-(1,2,3,4-tetrahydro-1,1,4,4-tetramethylnaphthalen-7-yl)acetamido)methyl)-N-hydroxybenzamide]
IC50 [1]: 4.1 µM

CC(/C=C/C(=O)NO)=C\[C@@H](C)C(=O)c1ccc(N(C)C)cc1 [TSA, Trichostatin A]
IC50 (HDAC): 0.0014 to 0.0026 µM

CC1(C)CCC(C)(C)c2cc(C(=O)Nc3ccc(C(=O)NO)cc3)ccc21 [EHT 3741, N-(4-(Hydroxycarbamoyl)phenyl)-5,6,7,8-tetrahydro-5,5,8,8-tetramethylnaphthalene-2-carboxamide]
IC50 [1]: 5.13 µM

CC1(C)CCC(C)(C)c2cc(C(F)(F)C(=O)Nc3ccc(C(=O)NO)cc3)ccc21 [EHT 9299, 4-(2,2-Difluoro-2-(1,2,3,4-tetrahydro-1,1,4,4-tetramethylnaphthalen-7-yl)acetamido)-N-hydroxybenzamide]
IC50 [1]: 0.424 µM
